According to patent publication US20250288583A1, “Treatment of Mucus Hypersecretion” (priority 2024, published 2025):

Legend:
philtrum skin = test: Cooling duration bioassay on philtrum skin; type: in vivo, human
Text: (§1) FIG. 1. Comparison of cooling duration of various p-menthanecarboxamide analogs on philtrum skin versus ocular margins. The philtrum skin is keratinized, but the ocular margins are not. The test substances numbered 1 to 11 are: D-Ala-OiPr, Gly-OiPr, D-Ala-OEt, D-Ala-OMe, D-Ala-GlynPr, GlynPr, D-Ala-OnBu, GlynBu, GlyOEt, L-Ala-OEt, and N-Me-D-Ala-OEt, respectively. Two outliers (1 and 2) were identified as preferred embodiments because they preferentially cool the ocular margins. The nasal cavity surfaces like the ocular margins are not keratinized.
(§2) Cooling agents have been assayed in various ways depending on intended use. For example, for the skin the test substance can be applied on philtrum skin, using descriptions of coolness on a scale of 0 to 3. For the ocular surface, the active ingredient can be applied to the closed eyelids using a wipe. In the oral cavity, drug applications are on the posterior dorsal surface of the tongue. For the oropharyngeal surface, the cooling agent may be applied as an orally disintegrating tablet. The ability of a cooling agent to antagonize a noxious stimuli may also be tested, using nociception from citric acid or chili pepper sauce. Responses are usually measured using a Visual Analog Scale with a numerical rating. For nasal responses, however, such procedures have not been standardized. Some endpoints to consider are open and comfortable breathing, the presence or absence of sniffles, and the secretion of phlegm.

ocular margins = test: Cooling duration bioassay on eyelids/ocular margins; type: in vivo, human; settings: for Eyelids/Ocular Surface: Table 6, cooling duration, non-keratinized
Text: as §1, §2

hTRPM8 channel = biological target: T1, hTRPM8 channel (Homo sapiens, UniProt Q7Z2W7); test: TRPM8 receptor assay, calcium entry (Fluo-8, FLIPR) in transfected CHO cells; type: cell-based; settings: for EC50: CHO cells transfected with hTRPM8, Fluo-8 calcium kit, FLIPR; for Potency Relative to L-menthol: ratio of TRPM8 EC50 values, menthol = 1.0
T1 construct: host or cells: CHO cells
Text: FIG. 4. Agonist activities of TRPM8 analogs. […] The relative fluorescence (RF) unit on the ordinate represents calcium entry into transfected cells. […] The structures of these compounds are in Table 4.
The applicant has synthesized and examined a series of p-menthanecarboxamides conjugated to amino acid esters. […] This class of molecules is called N-alkylcarbonyl-amino acid esters. GlyOiPr is a p-menthanecarboxamide conjugate of glycine isopropyl (iPr) ester. It is similar in structure to WS-5, a cooling agent used as a food additive. WS-5 is the p-menthane-glycine ethyl (Et) ester, or GlyOEt. […] These in vitro effects were measured in CHO cells transfected with the hTRPM8 channel. Receptor activity was quantified using a Fluo-8 calcium kit and a Fluorescence Imaging Plate Reader ([…]™).

nasal cavity = test: Nebulizer screening of TRPM8 agonists for sensations in the nasal cavity; type: in vivo, human; settings: NasoNeb nebulizer; for Sensory effects after delivery into the nasal cavity: 3 to 5 sec per nostril
Procedure: Formulations for nebulization with NasoNeb® used a standard recipe of (Table 8): 1% of the active ingredient (1 to 10 mg/mL), 2% Tween 80 (Polysorbate 80), 1 to 5% ethanol, and made up to 100% with water. The mixture is centrifuged in a FlackTek, Inc., Speedmixer for at least 10 min at 3000 rpm. The Speedmixer spins the sample in 3 dimensions. The result is a white homogeneous liquid suspension with some of the solids now dissolved. For dosing, ˜2 to 3 mL is loaded into the canister of the nebulizer. The nebulizer nozzle tip is placed in the nostril and activated by pressing a button for 3 to 5 sec using a clock timer. […] For D-Ala-OiPr a 5-sec activation will deliver 2*0.73 mL*2 mg/ml, or a total dose of 3 mg per nose. The nasal cavity is relatively tolerant to exogenous agents with irritant properties, as many rinses are used for rhinitis and sinusitis. For some p-menthanecarboxamide analogs, a 2% (20 mg/mL) solution is possible and contemplated. An ideal agent reproduces a comfortable cooling or sensations of negative heat flux in the nasal cavity. […] Heat flux refers to the rate of heat transfer per unit area. The sinonasal cavity mucosa differs from philtrum skin and ocular margins in histology, so the choice of the right molecule must be made by experiment. The TRPM8 agonists were chosen for screening using a nebulizer for delivery. The NasoNeb system is powerful and effective for the OMC (FIG. 3). The delivery time per nostril in three to five seconds. […] These parameters were estimated in the initial trials: • Onset and offset of cooling sensations in the nasal cavity. • The intensity and quality of the cooling sensations in the nasal cavity. • Presence of effects such as sneezing or cough after dosing. • Degree of nasal stuffiness on a scale of 0 to 5. • Degree of rhinorrhea and phlegm in nasal secretions. • Questions regarding comfort and sleep at night.

oral cavity = test: Chili-pepper sauce test (oral cavity); type: in vivo, human; parameters: scale not given here; settings: Table 6; grades 0, +, ++ without key
Text: as §2

ostiomeatal complex = test: Case studies: nebulized cooling agent in subjects with rhinitis and rhinosinusitis; type: in vivo, human; settings: NasoNeb delivery in subjects with rhinosinusitis
Text: Eight subjects with rhinitis and rhinosinusitis volunteered to test cooling agents delivered with the NasoNeb® nebulizer (FIG. 3). The results were clear, robust, and evident. No statistical analysis was necessary. In a 3 to 5-day course of nebulization t.i.d., all subjects reported the ability to manage and control stuffed-up breathing in their activities. All reported comfortable sleep. The sounds of sniffling and congestion of the nose (“sniffles”), snorting, or gurgling were still present, but to a lesser degree. The subject felt it was easier to blow out liquids from the nasal cavity onto a tissue, and the volume and frequency of blowing decreased. Viscous yellow mucus was less in volume and density. The number of wipes deposited daily into a waste basket decreased by >50%. The subjects-were cheerful and enthusiastic because nasal discomfort was under control. As one subject remarked: “The stuffed-up nose problem is now history!” Severat of these cases are reported below as “Case Studies.”
The subject was given a NasoNeb® nebulizer (unavailable in China) and five individual bottles containing 15 mL of a 1% GlyOiPr solution (suspended in 2% Tween 80, 5% ethanol, and 92% water). They were shown how to load the NasoNeb canister with about 2 mL of liquid and activate the device for a 3-second dose into each nostril. The recommended dosage was three times a day, starting in the morning and at about 6-hour intervals, and for five days.
The subject agreed to using the NasoNeb nebulizer with a cooling agent. They were given a NasoNeb nebulizer and three bottles, each containing 15 ml of a 1% GlyOiPr solution (suspended in 2% Tween 80, 5% ethanol, and 92% water). They were shown how to load the NasoNeb canister with about 2 mL of liquid and activate the device for a 3-second dose into each nostril. The recommended dosage was three times a day, starting in the morning and at about 6-hour intervals, and for five days. After a 5-day trial, the subject noted a significant improvement in sleep and comfortable breathing. […] Their headaches were gone, and their appetite improved. They were advised to continue using the Nebulizer/coolant for another week and then on an as-needed basis. Their family has noticed that the subject has become less withdrawn, more engaging, and interested in their surroundings.
The subject volunteered for a trial with GlyOiPr. They were given a NasoNeb® machine and a plastic squeeze bottle containing 50 mL of GlyOiPr at 3 mg/mL suspended in 1% ethanol/2% polysorbate 80. They learned how to load the canister and activate the pump. Then, they were instructed to rinse their nose thoroughly first thing in the morning and then use the Nebulizer at 5 sec per nostril to deliver the solution. The procedure was to be repeated at 2 hours and 5 hours later to total three daily activations. The subject was interviewed after dosing for three days. They said breathing was much easier at night after the dosing, and they slept well. Nasal secretions were still present but less in volume. […] They were encouraged to use the Nebulizer as needed but not to exceed three daily doses. Three weeks after the start of the experiment, they reported that they were in complete control of their rhinitis. They would do a single dose at night before sleep and one in the morning when needed. They no longer felt congested, and the headaches were gone. The slimy phlegm in the nostrils was gone, and crusting was absent. Their nose felt clean. Their social life improved.
Their main complaint was episodes at night when they would wake up and not be able to breathe comfortably. Sleep apnea and lung disorders were ruled out, and the diagnosis was rhinosinusitis. This was confirmed by a computerized tomography scan and endoscopic examination by a qualified ENT specialist. They agreed to test the preferred embodiments GlyOnPr, GlyOiPr, D-Ala-OnPr, and D-Ala-OiPr systematically, one after the other.

[1] = Table 6, cooling duration, keratinized skin

T1 sequence (Q7Z2W7 whole entry): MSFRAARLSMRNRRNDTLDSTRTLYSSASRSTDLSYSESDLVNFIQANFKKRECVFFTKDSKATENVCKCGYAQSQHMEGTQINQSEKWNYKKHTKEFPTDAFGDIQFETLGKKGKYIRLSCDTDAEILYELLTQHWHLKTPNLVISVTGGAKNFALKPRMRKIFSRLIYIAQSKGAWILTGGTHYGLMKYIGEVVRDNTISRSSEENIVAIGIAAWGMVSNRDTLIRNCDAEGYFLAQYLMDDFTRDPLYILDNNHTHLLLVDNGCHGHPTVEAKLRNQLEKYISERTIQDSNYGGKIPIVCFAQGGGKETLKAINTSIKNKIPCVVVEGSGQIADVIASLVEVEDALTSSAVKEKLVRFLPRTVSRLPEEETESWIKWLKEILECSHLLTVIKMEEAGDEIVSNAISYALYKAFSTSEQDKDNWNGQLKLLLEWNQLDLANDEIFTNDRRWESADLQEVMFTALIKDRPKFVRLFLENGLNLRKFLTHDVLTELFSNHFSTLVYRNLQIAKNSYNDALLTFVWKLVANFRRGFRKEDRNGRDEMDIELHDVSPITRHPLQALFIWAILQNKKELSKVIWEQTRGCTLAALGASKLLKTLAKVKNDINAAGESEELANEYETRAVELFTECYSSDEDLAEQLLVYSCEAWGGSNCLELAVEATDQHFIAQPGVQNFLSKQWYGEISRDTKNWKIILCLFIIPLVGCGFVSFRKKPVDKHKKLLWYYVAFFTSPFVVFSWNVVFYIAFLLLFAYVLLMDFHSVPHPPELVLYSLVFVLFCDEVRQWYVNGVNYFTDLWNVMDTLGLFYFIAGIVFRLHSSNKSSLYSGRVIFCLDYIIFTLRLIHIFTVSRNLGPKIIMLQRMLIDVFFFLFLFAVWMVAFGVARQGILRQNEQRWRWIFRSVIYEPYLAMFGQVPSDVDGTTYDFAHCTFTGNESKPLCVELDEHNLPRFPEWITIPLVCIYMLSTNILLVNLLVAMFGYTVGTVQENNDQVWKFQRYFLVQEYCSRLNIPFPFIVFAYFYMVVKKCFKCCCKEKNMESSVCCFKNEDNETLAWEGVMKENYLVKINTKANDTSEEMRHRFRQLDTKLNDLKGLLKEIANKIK

| SMILES | Philtrum Skin (philtrum skin; Table 7, Gly esters) [min] | Ocular Surface (ocular margins; Table 7, Gly esters) [min] | EC50 (hTRPM8 channel) [nM] | Potency Relative to L-menthol (hTRPM8 channel) | Sensory effects after delivery into the nasal cavity (nasal cavity) | Philtrum Skin (philtrum skin; [1]) [min] | Eyelids/Ocular Surface (ocular margins) [min] | Chili-Pepper Sauce Test (oral cavity) | Cooling duration in the nasal cavity (nasal cavity) [min] | Relief of stuffiness and breathing (ostiomeatal complex) |
| --- | --- | --- | --- | --- | --- | --- | --- | --- | --- | --- |
| COC(=O)CNC(=O)[C@@H]1C[C@H](C)CC[C@H]1C(C)C [GlyOMe] | 10 | 5 | 500 | 7.6 |  |  |  |  |  |  |
| CC(C)[C@@H]1CC[C@@H](C)C[C@H]1C(=O)NCCc1ccccn1 [FEMA 4549, (1R,2S,5R)-N-(2-(pyridin-2-yl)ethyl)-3-p-menthanecarboxamide, reference compound] |  |  |  |  | Although potent on TRPM8 receptor, slow onset and absence of refreshing cooling. |  |  |  |  |  |
| CCOC(=O)[C@H](C)NC(=O)[C@@H]1C[C@H](C)CC[C@H]1C(C)C [L-Ala-OEt, (S)-2-[((1R,2S,5R)-2-isopropyl-5-methyl-cyclohexanecarbonyl)-amino]-propionic acid ethyl ester] |  |  | 24000 | 0.2 | Very little cooling, low potency on TRPM8, good only as negative control. | 34 | 0 | 0 |  |  |
| CCOC(=O)C(C)NC(=O)[C@@H]1C[C@H](C)CC[C@H]1C(C)C (stereo partly drawn) [L-Ala-OiPr] |  |  |  |  |  | 27 | 15 | 0 |  |  |
| CCOC(=O)C(C)NC(=O)[C@@H]1C[C@H](C)CC[C@H]1C(C)C (stereo partly drawn) [L-Ala-OnBu] |  |  |  |  |  | 0 | 0 | 0 |  |  |
| CCOC(=O)[C@@H](C)NC(=O)[C@@H]1C[C@H](C)CC[C@H]1C(C)C [D-Ala-OEt, (R)-2-[((1R,2S,5R)-2-isopropyl-5-methyl-cyclohexanecarbonyl)-amino]-propionic acid ethyl ester] |  |  | 270 | 14.0 | Bitter taste, causes coughing | 103 | 180 |  | ~15 |  |
| CCCCOC(=O)C(C)NC(=O)[C@@H]1C[C@H](C)CC[C@H]1C(C)C (stereo partly drawn) [D-Ala-OnBu] |  |  | 1030 | 3.7 |  | 80 | 40 | 0 |  |  |
| CCOC(=O)C(C)NC(=O)[C@@H]1C[C@H](C)CC[C@H]1C(C)C (stereo partly drawn) [L-Ala-OnPr] |  |  |  |  |  | 22 | 10 | 0 |  |  |
| CCCOC(=O)[C@@H](C)NC(=O)[C@@H]1C[C@H](C)CC[C@H]1C(C)C [D-Ala-OnPr, (R)-2-[((1R,2S,5R)-2-isopropyl-5-methyl-cyclohexanecarbonyl)-amino]-propionic acid n-propyl ester] |  |  |  |  | Strong penetrating cool at 3 mg/mL. Excellent for viral ARS. | 108 | 65 |  |  | provided relief |
| COC(=O)C(C)NC(=O)[C@@H]1C[C@H](C)CC[C@H]1C(C)C (stereo partly drawn) [D-Ala-OMe] |  |  | 590 | 6.4 |  | 77 | 120 |  |  |  |
| O=C1NC(c2cccc([N+](=O)[O-])c2)=CCN1c1ccccc1O [icilin, 1-[2-hydroxy]-4-[3-nitrophenyl]-1,2,3,6-tetrahydropyrimidine-2-one, reference compound] |  |  |  |  | Difficult to form a homogeneous suspension, causes systemic cooling at higher doses |  |  |  |  |  |
